One data set has as its target T1, hMC4R (Homo sapiens, UniProt P32245).
T1 construct: Flag; expressed in transfected cells
As to the kind of experiment: AlphaScreen cAMP functional bioassay, hMC4R. Format: cell-based. Particulars: HEK293 cells stably expressing hMC4R. The method, then:
Upon agonist stimulation, melanocortin receptors are known to signal through a Gαs-protein mediated signaling pathway that results in intracellular cAMP accumulation.
Stable populations were selected for using G418 selection (0.7-1.0 mg/mL) and used in bioassays unless indicated otherwise. In vitro experimental ligands were dissolved to a 10^−2 M stock in DMSO and stored at −20° C. Subsequent dilutions were performed in each assay's specific buffer to achieve the final concentration in the well. The ligands were assayed as TFA salts.
AlphaScreen cAMP Functional Bioassay
The AlphaScreen® assay was performed as described by manufacturer.
Cells were removed from plates using Gibco® Versene solution and pelleted by centrifugation (Sorvall Super T21 high speed centrifuge, swinging bucket rotor) at 800 rpm for five minutes. […] A 10 μL aliquot of cell suspension was counted manually using a hemocytometer after addition of Trypan blue dye (BioRad). Cells were again pelleted by centrifugation, and DPBS was gently aspirated. The pelleted cells were then resuspended in a solution of freshly made stimulation buffer (Hank's Balanced Salt Solution [HBSS 10× [−] sodium bicarbonate] and [−] phenol red, Gibco®], 0.5 mM isobutylmethylxanthine [IBMX], 5 mM HEPES buffer solution [1M, Gibco®], 0.1% bovine serum albumin [BSA] in Milli-Q water, pH=7.4) and anti-cAMP acceptor beads (1.0 unit per well, AlphaScreen®). […] The cells were then stimulated with ligand diluted in stimulation buffer to achieve their final concentrations in the well ranging from 10^−13 to 10^−4 M. The stimulated plates were incubated in a dark laboratory drawer at room temperature for two hours.
Meanwhile, a biotinylated cAMP/streptavidin donor bead working solution was made by adding biotinylated cAMP (1 Unit/well, AlphaScreen®) and streptavidin donor beads (1 Unit/well, AlphaScreen®) to a lysis buffer (10% Tween-20, 5 mM HEPES buffer solution [1M, Gibco®], 0.1% bovine serum albumin [BSA] in Milli-Q water, pH=7.4). After the two hour stimulation, the biotinylated cAMP/Streptavidin donor bead working solution was added to each well under green light and mixed well by pipetting up and down. The cells were incubated for another two hours at room temperature in a dark drawer at room temperature. The plate was then read on an EnSpire™ Alpha plate reader using a pre-normalized assay protocol set by the manufacturer. Assays were performed with duplicate data points on each plate and repeated in at least three independent experiments.
Dose response curves were analyzed using the PRISM program (v4.0; GraphPad Inc.).
Background: Bead proximity is the source of the signal in Alpha formats.

For another data set, the system named is male MC4RKO mice. As to the kind of experiment: ICV administration, conventional cages, male MC4RKO mice. Format: in vivo. Here is the method:
All experiments were performed in accordance with the Institutional Animal Care and Use Committee (IACUC) at the University of Minnesota. Female and male littermates with mixed background from C57BL/6J and 129/Sv inbred strains were 8 weeks old at the time of surgeries. Mice were individually housed after surgeries and for the remainder of the experiment. Mice were maintained on a 12 hr light/dark cycle (Lights off was at 11:59 AM) in a temperature controlled room (23-25° C.). In the nocturnal feeding paradigm, mice had free access to normal chow (Harlan Teklad 2018 Diet: 18.6% crude protein, 6.2% crude fat, 3.5% crude fiber, with energy density of 3.1 kcal/g). […] Mice had free access to tap water throughout all the experiments. The cannula placement validation studies and conventional cage studies were performed in standard mouse polycarbonate conventional cages provided by University of Minnesota's Research Animal Resources (RAR). Weekly cage changes were conducted by lab research staff.
Mice were anesthetize with a mixture of ketamine (100 mg/kg) and xylazine (5 mg/kg) and were positioned in a stereotaxic apparatus (David Kopf Instruments). A 26-gauge cannula (Cat# 81C315GS4SPC; PlasticsOne, Roanoke, Va.) was inserted in the lateral cerebral ventricle at the coordinates 1.0 mm lateral and 0.46 mm posterior to bregma and 2.3 mm ventral to the skull (Franklin, K. B. J. & Paxinos, G. The Mouse Brain in Stereotaxic Coordinates. (Academic Press, 1997)).
As stated above, conventional cage experiments were performed in standard mouse polycarbonate conventional cages. […] All experiments followed a cross-over paradigm in which the mouse received saline and compound on different days with a washout period in between each treatment. Statistical analysis was performed using SPSS V23 software (IBM) using a multivariate general linear model followed by a Bonferroni's post hoc test. Results are presented as Mean±SEM. Statistically significant was considered p<0.05.
In male MC4RKO mice, CJL-5-58 was administered at 5 nmols in both a nocturnal paradigm and a fasting-refeeding paradigm in standard conventional cages (FIG. 15). The dose was well handled in the nocturnal paradigm, but minimal effect was observed.

SMILES strings stand for the structures. Entries after “also recorded” stand apart in the source; their conditions may differ.

T1 sequence (P32245 whole entry): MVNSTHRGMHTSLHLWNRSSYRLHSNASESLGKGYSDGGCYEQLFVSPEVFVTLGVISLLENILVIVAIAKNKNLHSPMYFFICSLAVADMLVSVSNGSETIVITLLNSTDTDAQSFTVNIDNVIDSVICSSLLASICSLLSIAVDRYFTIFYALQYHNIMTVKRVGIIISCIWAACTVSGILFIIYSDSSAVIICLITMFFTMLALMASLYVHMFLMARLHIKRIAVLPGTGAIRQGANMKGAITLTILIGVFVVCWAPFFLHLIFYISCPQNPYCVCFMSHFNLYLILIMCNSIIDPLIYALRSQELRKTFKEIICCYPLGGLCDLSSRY

For `CC(=O)N[C@@H](Cc1cnc[nH]1)C(=O)N[C@H](Cc1ccccc1)C(=O)N[C@@H](CCCNC(=N)N)C(=O)N[C@@H](Cc1c[nH]c2ccccc12)C(=O)NCCCOCCOCCOCCCNC(=O)COCC(=O)N[C@@H](Cc1cnc[nH]1)C(=O)N[C@H](Cc1ccc2ccccc2c1)C(=O)N[C@@H](CCCNC(=N)N)C(=O)N[C@@H](Cc1c[nH]c2ccccc12)C(N)=O` [CJL-5-58, Ac-His-DPhe-Arg-Trp-(PEDG20)-His-DNal(2′)-Arg-Trp-NH2], the “cAMP agonist potency (in words)” value at hMC4R was “single digit nanomolar agonists”. For the same compound, in the data set on male MC4RKO mice (ICV 2.5 to 5 nmols, conventional cages), the toxicity entry is listed as “Some toxicity was observed”. For the same compound, in the data set with male MC4RKO mice (fasting-refeeding, 5 nmols), the adverse reactions result is reported as “some signs of adverse reactions”; the “body weight vs saline” value is reported as “no effect on mouse body weight”; the “food intake vs saline” value was “decreased food intake at 2, 4, 6, 8 and 24 hours after compound administration”. Further, in the data set with male MC4RKO mice (nocturnal paradigm, 5 nmols), the “body weight vs saline” value was “significant increase in body weight 6 hours after compound administration”, the “food intake vs saline” value is reported as “immediate reduction in food intake 2 hours after compound administration” and the tolerability entry is on record as “well handled; also recorded: looked healthy”.

For the origin of these results see patent US20180360972A1, “THERAPEUTIC COMPOUNDS” (REGENTS OF THE UNIVERSITY OF MINNESOTA, priority 2017, published 2018).
